Read-outs that look alike come from different tables or passages of the source. Starred links: 1 amine or outer side, 2 acyl side, 3 side chain; linkers in the order of their positions; H or OH if unused. Positions of bridges follow the written chain, without caps; N, C: chain ends. Non-standard residues stand in square brackets, D forms with d. Residues, ends and D or L forms follow the SMILES beside them. *: point of attachment. NMePhe(3-Cl) = CN[C@@H](Cc1cccc(Cl)c1)C(=O)O; NMeF = CN[C@@H](Cc1ccccc1)C(=O)O; NMeβAla = CN(CCC(=O)[*:2])[*:1]; NMeL = CN[C@@H](CC(C)C)C(=O)O; NMeA = CN[C@@H](C)C(=O)O; Piperidide = C1CCN(*)CC1; dNMeA = CN[C@H](C)C(=O)O; Sar = CNCC(=O)O
Columns and labels:
[1] = PAMPA (parallel artificial membrane permeability assay); assay type: in vitro ADME; conditions: PAMPA
Summary of the method: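 Artificial membrane was 10% (w/v) egg lecithin plus 0.5% (w/v) cholesterol in dodecane on a PVDF filter. A 10 mM DMSO stock was added at 0.5% (v/v) to donor buffer (50 mM MOPSO, pH 6.5, 5.0% glycocholic acid). After 18 h at 37 °C, LC/MS or LC/UV gave donor and acceptor levels for Pe.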

[2] = Metabolic stability in human hepatic microsome; assay type: in vitro ADME; conditions: microsomes
[3] = membrane permeation rate (Pe), 50 mM MOPSO buffer pH 6.5 with 5.0% glycocholic acid, 37° C., 18 hours, read-out: iPAMPA Pe
[4] = pH 7.4, human hepatic microsome, NADPH(+), read-out: CL NADPH(+)

SMILES | Papp at 18 hours, 50 µM [1, 3] | microsomal CLint at 1 uM [2, 4] | Papp at 18 hours, 50 µM ([1]; pH 6.5) | microsomal CLint at 1 uM ([2]; human, pH 7.4, CL NADPH(+))
CC[C@H](C)[C@H](NC(=O)[C@H](CC(C)C)NC(=O)[C@H](CC(C)C)N(C)C(=O)[C@@H](NC(=O)[C@@H]1CCCN1C(=O)[C@@H]1CC(=O)N(C)CCC(=O)N[C@@H](CC(C)C)C(=O)N(C)[C@@H](CC(C)C)C(=O)N[C@@H]([C@@H](C)O)C(=O)N(C)[C@@H](C)C(=O)N[C@@H]([C@@H](C)CC)C(=O)N(C)[C@@H](CC(C)C)C(=O)N(C)[C@@H](CC(C)C)C(=O)N1)[C@@H](C)CC)C(=O)N1CCCCC1 [DP-937] ([NMeβAla]L[NMeL]T[NMeA]I[NMeL][NMeL]DPI[NMeL]LI-Piperidide; lactam N-9) | 0.47 ×10⁻⁶ cm/s | 164 µL/min/mg | – | –
CC[C@H](C)[C@H](NC(=O)[C@H](Cc1ccccc1)N(C)C(=O)[C@@H](NC(=O)[C@H](C)NC(=O)[C@H](CC(C)C)N(C)C(=O)[C@@H]1CC(=O)N(C)[C@@H](C)C(=O)N(C)[C@@H](CC(C)C)C(=O)N(C)[C@@H](Cc2ccccc2)C(=O)N[C@@H]([C@@H](C)O)C(=O)N(C)[C@@H](CC(C)C)C(=O)N(C)[C@@H](CC(C)C)C(=O)N[C@@H]([C@@H](C)CC)C(=O)N(C)[C@@H](CC(C)C)C(=O)N1)C(C)C)C(=O)N1CCCCC1 [DP-938] ([NMeA][NMeL][NMeF]T[NMeL][NMeL]I[NMeL]D[NMeL]AV[NMeF]I-Piperidide; lactam N-9) | 0.1 ×10⁻⁶ cm/s | 8 µL/min/mg | – | –
CC[C@H](C)[C@H](NC(=O)[C@H](CC(C)C)N(C)C(=O)CN(C)C(=O)[C@@H](NC(=O)[C@@H]1CC(=O)N[C@H](C(C)C)C(=O)N[C@@H](C)C(=O)N[C@@H]([C@@H](C)O)C(=O)N(C)[C@@H](C)C(=O)N[C@@H](Cc2ccccc2)C(=O)N(C)[C@@H](CC(C)C)C(=O)N(C)[C@@H](Cc2ccccc2)C(=O)N(C)[C@@H](CC(C)C)C(=O)N1)C(C)C)C(=O)N1CCCCC1 [DP-939] ([dV]AT[NMeA]F[NMeL][NMeF][NMeL]DV[Sar][NMeL]I-Piperidide; lactam N-9) | 3.6 ×10⁻⁶ cm/s | 8 µL/min/mg | – | –
CC[C@H](C)[C@H](NC(=O)[C@@H](NC(=O)[C@H](CC(C)C)N(C)C(=O)[C@@H](NC(=O)[C@@H]1CC(=O)N(C)[C@@H](C)C(=O)N[C@@H](CC(C)C)C(=O)N(C)[C@@H](Cc2ccccc2)C(=O)N[C@@H](CC(C)C)C(=O)N(C)CC(=O)N(C)[C@@H](CC(C)C)C(=O)N[C@@H]([C@@H](C)CC)C(=O)N(C)[C@@H](CC(C)C)C(=O)N1)[C@@H](C)O)C(C)C)C(=O)N1CCCCC1 [DP-940] ([NMeA]L[NMeF]L[Sar][NMeL]I[NMeL]DT[NMeL]VI-Piperidide; lactam N-9) | 0.14 ×10⁻⁶ cm/s | 37 µL/min/mg | – | –
CC[C@H](C)[C@H](NC(=O)[C@H](CC(C)C)N(C)C(=O)[C@@H](NC(=O)[C@H](Cc1ccccc1)N(C)C(=O)[C@@H]1CC(=O)N(C)CCC(=O)N(C)[C@@H](Cc2cccc(Cl)c2)C(=O)N[C@@H](CC(C)C)C(=O)N[C@@H]([C@@H](C)O)C(=O)N[C@@H](CC(C)C)C(=O)N[C@@H]([C@@H](C)CC)C(=O)N(C)[C@@H](CC(C)C)C(=O)N(C)[C@@H](CC(C)C)C(=O)N1)[C@@H](C)CC)C(=O)N1CCCCC1 [DP-941] ([NMeβAla][NMePhe(3-Cl)]LTLI[NMeL][NMeL]D[NMeF]I[NMeL]I-Piperidide; lactam N-9) | 0.1 ×10⁻⁶ cm/s | 49 µL/min/mg | – | –
CC[C@H](C)[C@H](NC(=O)[C@H](C)N(C)C(=O)[C@@H]1CCCN1C(=O)[C@@H](NC(=O)[C@@H]1CC(=O)N(C)[C@H](C)C(=O)N(C)[C@@H](CC(C)C)C(=O)N(C)[C@@H](Cc2ccccc2)C(=O)N[C@@H](CC(C)C)C(=O)N(C)[C@@H](Cc2cccc(Cl)c2)C(=O)N[C@@H]([C@@H](C)O)C(=O)N(C)[C@@H](Cc2ccccc2)C(=O)N[C@@H](CC(C)C)C(=O)N1)[C@@H](C)CC)C(=O)N1CCCCC1 [DP-942] ([dNMeA][NMeL][NMeF]L[NMePhe(3-Cl)]T[NMeF]LDIP[NMeA]I-Piperidide; lactam N-9) | 0.1 ×10⁻⁶ cm/s | 23 µL/min/mg | – | –
CC[C@H](C)[C@H](NC(=O)[C@H](C)N(C)C(=O)[C@H](CC(C)C)N(C)C(=O)[C@@H](NC(=O)[C@@H]1CC(=O)N(C)[C@@H](C)C(=O)N[C@@H]([C@@H](C)O)C(=O)N(C)[C@@H](Cc2ccccc2)C(=O)N[C@@H](C(C)C)C(=O)N2CCC[C@H]2C(=O)N(C)[C@@H](Cc2ccccc2)C(=O)N[C@@H](CC(C)C)C(=O)N(C)[C@@H](Cc2ccccc2)C(=O)N1)C(C)C)C(=O)N1CCCCC1 [DP-943] ([NMeA]T[NMeF]VP[NMeF]L[NMeF]DV[NMeL][NMeA]I-Piperidide; lactam N-9) | – | – | 0.1 ×10⁻⁶ cm/s | 7 µL/min/mg
CC[C@H](C)[C@H](NC(=O)[C@H](CC(C)C)N(C)C(=O)[C@H](CC(C)C)NC(=O)[C@H](C)N(C)C(=O)[C@@H]1CC(=O)N[C@H](C(C)C)C(=O)N(C)[C@@H](CC(C)C)C(=O)N(C)[C@@H](CC(C)C)C(=O)N[C@@H](C)C(=O)N[C@@H](Cc2ccccc2)C(=O)N[C@@H]([C@@H](C)O)C(=O)N[C@@H](CC(C)C)C(=O)N(C)[C@@H](Cc2ccccc2)C(=O)N(C)[C@@H](CC(C)C)C(=O)N1)C(=O)N1CCCCC1 [DP-944] ([dV][NMeL][NMeL]AFTL[NMeF][NMeL]D[NMeA]L[NMeL]I-Piperidide; lactam N-10) | 0.1 ×10⁻⁶ cm/s | 20 µL/min/mg | – | –
CC[C@H](C)[C@H](NC(=O)[C@H](CC(C)C)N(C)C(=O)[C@H](CC(C)C)NC(=O)[C@H](C)N(C)C(=O)[C@@H]1CC(=O)N[C@@H](C)C(=O)N(C)[C@@H](CC(C)C)C(=O)N[C@@H](C(C)C)C(=O)N[C@@H](C)C(=O)N(C)[C@@H](CC(C)C)C(=O)N(C)[C@@H](CC(C)C)C(=O)N(C)[C@@H](Cc2ccccc2)C(=O)N[C@@H]([C@@H](C)O)C(=O)N(C)[C@@H](Cc2ccccc2)C(=O)N1)C(=O)N1CCCCC1 [DP-945] (A[NMeL]VA[NMeL][NMeL][NMeF]T[NMeF]D[NMeA]L[NMeL]I-Piperidide; lactam N-10) | 0.1 ×10⁻⁶ cm/s | 28 µL/min/mg | – | –
CC[C@H](C)[C@@H]1NC(=O)[C@H](CC(C)C)N(C)C(=O)[C@H](Cc2cccc(Cl)c2)N(C)C(=O)[C@H](Cc2ccccc2)NC(=O)[C@H](CC(C)C)N(C)C(=O)[C@H](C)N(C)C(=O)[C@H]([C@@H](C)O)NC(=O)[C@H](C)N(C)C(=O)C[C@@H](C(=O)N[C@H](C(=O)N(C)[C@@H](CC(C)C)C(=O)N(C)[C@@H](Cc2ccccc2)C(=O)N[C@H](C(=O)N2CCCCC2)[C@@H](C)CC)[C@@H](C)CC)NC(=O)[C@H](C(C)C)NC1=O [DP-946] ([NMeA]T[NMeA][NMeL]F[NMePhe(3-Cl)][NMeL]IVDI[NMeL][NMeF]I-Piperidide; lactam N-10) | 0.1 ×10⁻⁶ cm/s | 15 µL/min/mg | – | –
CC[C@H](C)[C@@H]1NC(=O)[C@H](CC(C)C)N(C)C(=O)[C@H](Cc2ccccc2)N(C)C(=O)[C@H](Cc2ccccc2)NC(=O)[C@H](C)N(C)C(=O)[C@H](CC(C)C)N(C)C(=O)[C@@H](C(C)C)NC(=O)C[C@@H](C(=O)N(C)[C@@H](CC(C)C)C(=O)N[C@H](C(=O)N(C)[C@@H](C)C(=O)N[C@H](C(=O)N2CCCCC2)[C@@H](C)CC)C(C)C)NC(=O)[C@H](CC(C)C)NC(=O)[C@H]([C@@H](C)O)NC1=O [DP-947] ([dV][NMeL][NMeA]F[NMeF][NMeL]ITLD[NMeL]V[NMeA]I-Piperidide; lactam N-10) | 0.1 ×10⁻⁶ cm/s | 14 µL/min/mg | – | –
CC[C@H](C)[C@H](NC(=O)[C@H](CC(C)C)N(C)C(=O)[C@@H]1CCCN1C(=O)[C@H](Cc1ccccc1)N(C)C(=O)[C@@H]1CC(=O)N(C)CCC(=O)N[C@@H](Cc2ccccc2)C(=O)N(C)[C@@H](CC(C)C)C(=O)N[C@@H]([C@@H](C)O)C(=O)N[C@@H](C(C)C)C(=O)NCC(=O)N(C)[C@@H](CC(C)C)C(=O)N[C@@H](CC(C)C)C(=O)N(C)[C@@H](CC(C)C)C(=O)N1)C(=O)N1CCCCC1 [DP-948] ([NMeβAla]F[NMeL]TVG[NMeL]L[NMeL]D[NMeF]P[NMeL]I-Piperidide; lactam N-10) | 0.78 ×10⁻⁶ cm/s | 20 µL/min/mg | – | –
CC[C@H](C)[C@H](NC(=O)[C@@H](NC(=O)[C@H](Cc1ccccc1)NC(=O)[C@@H]1CC(=O)N[C@H](C(C)C)C(=O)N(C)[C@@H](C)C(=O)N(C)[C@@H](CC(C)C)C(=O)N[C@@H]([C@@H](C)O)C(=O)N(C)CC(=O)N(C)[C@@H](Cc2ccccc2)C(=O)N(C)[C@@H](CC(C)C)C(=O)N(C)[C@@H](Cc2cccc(Cl)c2)C(=O)N(C)[C@@H](CC(C)C)C(=O)N[C@@H](C)C(=O)N1)C(C)C)C(=O)N1CCCCC1 [DP-949] ([dV][NMeA][NMeL]T[Sar][NMeF][NMeL][NMePhe(3-Cl)][NMeL]ADFVI-Piperidide; lactam N-11) | 0.11 ×10⁻⁶ cm/s | 37 µL/min/mg | – | –
CC[C@H](C)[C@@H]1NC(=O)[C@H](CC(C)C)NC(=O)[C@H](C)N(C)C(=O)[C@H](CC(C)C)N(C)C(=O)[C@H](CC(C)C)NC(=O)[C@H](Cc2cccc(Cl)c2)N(C)C(=O)[C@H]([C@@H](C)O)NC(=O)[C@H](C)N(C)C(=O)[C@H](C(C)C)NC(=O)[C@H](C)N(C)C(=O)C[C@@H](C(=O)N(C)[C@@H](Cc2ccccc2)C(=O)N(C)[C@@H](CC(C)C)C(=O)N[C@H](C(=O)N2CCCCC2)[C@@H](C)CC)NC1=O [DP-950] ([NMeA]V[NMeA]T[NMePhe(3-Cl)]L[NMeL][NMeA]LID[NMeF][NMeL]I-Piperidide; lactam N-11) | 0.1 ×10⁻⁶ cm/s | 12 µL/min/mg | – | –
CC[C@H](C)[C@H](NC(=O)[C@@H](NC(=O)[C@H](C)N(C)C(=O)[C@@H]1CC(=O)N(C)[C@@H](C)C(=O)N(C)[C@@H](CC(C)C)C(=O)N(C)[C@@H](CC(C)C)C(=O)N[C@@H](CC(C)C)C(=O)N(C)[C@@H](CC(C)C)C(=O)N(C)[C@@H](Cc2ccccc2)C(=O)N(C)[C@@H](Cc2ccccc2)C(=O)N[C@@H]([C@@H](C)O)C(=O)N(C)[C@@H](C)C(=O)N(C)[C@@H](CC(C)C)C(=O)N1)C(C)C)C(=O)N1CCCCC1 [DP-951] ([NMeA][NMeL][NMeL]L[NMeL][NMeF][NMeF]T[NMeA][NMeL]D[NMeA]VI-Piperidide; lactam N-11) | 0.1 ×10⁻⁶ cm/s | 11 µL/min/mg | – | –

From patent US9409952B2, “Peptide-compound cyclization method” (Chugai Seiyaku Kabushiki Kaisha, priority 2011, dated 2016)
